Results on two molecules are retold here after BindingDB's records for doi:10.1021/jm0101085 (University of North Carolina, 2001).

For test [1], the target named is T1, Tubulin alpha-1A chain (Sus scrofa, UniProt P02550). As to the kind of experiment: Inhibition of colchicine binding(ICB). Tubulin concentration was 1 uM.
Test [2] concerns the target T1, Tubulin alpha-1A chain. As to the kind of experiment: Inhibition of colchicine binding(ICB). [3H]colchicine concentration was 5 uM.
In test [3] the target is T1, Tubulin alpha-1A chain. As to the kind of experiment: Percent inhibition of colchicine binding(ICB) at 5 uM [3H]colchicine concentration.

T1 sequence (P02550 whole entry, looked up): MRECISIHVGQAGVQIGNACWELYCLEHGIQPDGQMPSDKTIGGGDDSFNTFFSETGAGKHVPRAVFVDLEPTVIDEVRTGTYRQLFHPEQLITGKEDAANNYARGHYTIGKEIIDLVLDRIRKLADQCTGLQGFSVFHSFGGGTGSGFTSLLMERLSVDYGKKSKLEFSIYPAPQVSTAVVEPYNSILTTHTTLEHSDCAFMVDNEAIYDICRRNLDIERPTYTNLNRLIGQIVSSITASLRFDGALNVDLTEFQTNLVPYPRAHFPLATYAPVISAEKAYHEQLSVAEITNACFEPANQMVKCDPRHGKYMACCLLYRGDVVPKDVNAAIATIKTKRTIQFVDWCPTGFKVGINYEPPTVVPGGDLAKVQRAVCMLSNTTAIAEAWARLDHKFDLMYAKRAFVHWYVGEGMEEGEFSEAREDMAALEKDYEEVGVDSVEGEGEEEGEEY

The term Inhibition denotes the share of the control response that was lost under treatment. Low readings indicate a weak effect, high ones a strong effect. As to `Oc1cc(-c2ccccc2F)nc2ccc(N3CCCC3)cc12` [2-(2-fluorophenyl)-6-(pyrrolidin-1-yl)quinolin-4(1H)-one], the results for the Inhibition in test [1] and in test [2] were 76% and 93%, respectively.
The molecule `Oc1cc(-c2ccccc2F)nc2cc3c(cc12)OCO3` [2-(2-fluorophenyl)-6,7-methylenedioxyquinolin-4-one] came in with an Inhibition in test [3] of 39%.
